Measurements published in patent US7645882B2, “Inhibitor of protein modification products formation” (priority 2003, dated 2010).

Key:
pentosidine = experiment: Pentosidine production inhibiting effect with BSA and arabinose; format: biochemical; conditions: BSA and arabinose instead of plasma
How it was run: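 Heparinized hemodialysis-patient plasma (replaced here by BSA plus arabinose) incubated with compound at 0.8, 2.0, 5.0 mM final, 37 °C, one week. Protein TCA-precipitated, hydrolysed in 6N HCl at 110 °C for 16 h; free pentosidine quantified by reversed-phase HPLC with fluorescence (ex/em 335/385 nm) against synthetic standard.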

[1] = tested on: rat carotid balloon injury model; experiment: Vascular endothelial thickening inhibiting effect in rat carotid balloon injury model; format: in vivo; conditions: oral 50 mg/kg twice daily (hydrochloride), 15 days, aminoguanidine hydrochloride 45 mg/kg twice daily as positive control
Method: vascular endothelial thickening inhibiting effect in rat carotid balloon injury model, which is post-vasodilatory operation restenosis model.
TM-2002 was suspended in sodium carboxymethylcellulose aqueous solution (CMC) (0.5%) using mortar and prepared to the concentration of 12.5 mg/mL using measuring cylinder.
Aminoguanidine hydrochloride (Sigma) was used as positive control, suspended in CMC aqueous solution (0.5%) using mortar in the same manner, and prepare to the concentration of 11.25 mg/mL using measuring cylinder. Each preparation was formed when use it to administer orally coercively using disposable injection and oral sonde with suspending. […]
While testing, the alive and the condition of wound were observed everyday. The body weight was measured once a day from the day before injury to 14 day after balloon injury. The dose of each individuals were calculated by their body weight.
The blood samples were obtained from abdomen vena cava under anesthesia by ether on 15 day after balloon injury. […] The area of intravascular lumen, the area surrounded by internal elastic lamina and the area surrounded by external elastic lamina was calculated using image analyzer (VM-30, Olympus photology).
For each sections (3 region), the area of neointimal, media and neointimal/media rate of blood vessel was calculated from the measured area. […]

Cc1ncc2c(c1O)C(c1c(C)nn(-c3ccccc3)c1O)OC2 (centres unmarked) [compound 68, 1-(5-hydroxy-3-methyl-1-phenyl-1H-pyrazol-4-yl)-6-methyl-1,3-dihydro-furo[3,4-c]pyridin-7-ol]
Pentosidine production rate in 5 mM of medicament (%) (pentosidine): 2.82%
intimal thickening inhibiting effect [1]: intimal thickening inhibiting effect equal to aminoguanidine group
